# Measured values as given in ChEMBL document CHEMBL5725801, “Fused heterocyclic compounds as CaM kinase inhibitors” (2018).
# Assay: CaMKII delta Biochemical Assay: The biochemical activity of recombinant CaMKIIδ was measured by monitoring the phosphorylation of a target peptide using Homogenous Time Resolved Fluorescence (HTRF) technology from CisBio Bioassays. 10 pM […] (Life Technologie Corporation) was incubated for 1 hour with 110 nM calmodulin (EMD Millipore), 1 μM Biotin-STK1 (target peptide, CisBio Bioassays) and 12 μM ATP (Sigma-Aldrich) in a buffer containing 20 mM Hepes pH7.2, 10 mM MgCl2 and 1 mM CaCl2 as well as the compound to be tested or DMSO at a final concentration of 0.6%. The reaction was stopped with the addition of the detection buffer (containing EDTA) with Eu-cryptate labeled anti-phospho-STK1 antibody (CisBio Bioassays) and 125 nM XL665 labeled streptavidin (CisBio Bioassays).
row,Structure (SMILES),IC50
1,CCN1C[C@@H](F)C[C@H]1CNC(=O)c1ccnc(-c2cnn3ccc(-c4cccs4)nc23)c1,7.07 nM

# Assay: CaMKII Cell-Based Activity: CaMKII activity in neonatal rat ventricular myocytes (NRVM) was measured by monitoring the phosphorylation level of phospholamban using high-content imaging. NRVMs were plated in a clear bottom 384-well plate in medium supplemented with 10% fetal bovine serum (FBS) and incubated at 37° C., 5% CO2 overnight. The medium was changed to a serum-free medium and compounds were dosed to the cells. The cells were incubated at 37° C., 5% CO2 for 4 hours and were then treated with 100 nM ATX-II (Alomone Labs) to activate CaMKII. 10 minutes after the addition of ATX-II, the cells were fixed with 4% formaldehyde followed by permeabilization with 0.1% triton X100. The fixed cells were stained with an anti-phospho-phospholamban primary antibody (Santa Cruz Biotechnology) and an Alexa488-labeled anti-rabbit IgG secondary antibody (Life Technologies Corporation) as well as Hoechst 33342 (Life Technologies Corporation). The cells were imaged using an ArrayScan VTI (Cellomics) and analyzed for cells containing a positive fluorescent signal at 485 nm, reported as % responder. The % responders were plotted against the compound concentration to determine the compounds EC50.
row,Structure (SMILES),EC50
1,CCN1C[C@@H](F)C[C@H]1CNC(=O)c1ccnc(-c2cnn3ccc(-c4cccs4)nc23)c1,53.4 nM
2,CCN(CC)[C@@H](C)CNC(=O)c1cc(NCCC(C)(C)O)nc(-c2cnn3ccc(-c4cccs4)nc23)c1,22.3 nM
3,CCN(CC)[C@@H](C)CNC(=O)c1cc(-c2cnoc2)nc(-c2cnn3ccc(-c4cccs4)nc23)c1,29.7 nM

# More lines, now with the values ahead:
row,EC50,Structure (SMILES)
1,56.7 nM,CCN(CC)[C@@H](C)CNC(=O)c1cc(-c2cnn3ccc(-c4cccs4)nc23)nc(N2CC(O)(C3CC3)C2)c1
2,26.5 nM,CCN(CC)[C@@H](C)CNC(=O)c1cc(-c2cnn3ccc(-c4cccs4)nc23)nc(N2CC(O)(C(F)(F)F)C2)c1
